Values of other authors as cited in US20240383928A1, “PRODUCTION OF DIORGANOTIN DIHALIDES” (priority 2021, published 2024).

Test system: mice
Settings: intraperitoneal injection

Row | SMILES | LD50 (time not stated, all animals that survived for 25 minutes recovered) [mg/kg] | 2-hr. LD50 [mg/kg] | 24-hr. LD50 [mg/kg]
1 | CC[N+](CC)(CC)CC.[Cl-] [N(C2H5)4Cl] | 60 | – | –
2 | C[CH2][Sn]([CH2]C)([CH2]C)[CH2]C [Sn(C2H5)4] | – | 660 | 130
3 | [CH3][Sn]([CH3])([CH3])[CH3] [Sn(CH3)4, tetramethyl tin] | – | 140 | 18
